# Data as given in the supplement of paper PMC11451515.
# System: NOMO1
# Test: cell viability relative to DMSO control; higher = less cytotoxic
# Conditions: 48 h
# Procedure, shortened: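 Cells were incubated for 48 h at 37°C before CellTiter-Glo One luminescence was read. The cells were NOMO1 or SEM (500 cells/well) or P12-Ichikawa (1000 cells/well) leukemia cells, adapted for at least four passages in each medium and seeded in 1536-well plates (5 μl). Dosing used library compounds in DMSO applied by pin over 11 threefold points, 47 μM to 0.79 nM. Viability is the per-plate percentage of DMSO wells, with cell-free wells as background.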
# [1] = HPLM + 10% dialyzed FBS, 0.000781 µM
# [2] = HPLM + 10% dialyzed FBS, 0.00234 µM
# [3] = HPLM + 10% dialyzed FBS, 0.00702 µM
# [4] = HPLM + 10% dialyzed FBS, 0.0211 µM
# [5] = HPLM + 10% dialyzed FBS, 0.0632 µM
# [6] = HPLM + 10% dialyzed FBS, 0.19 µM
# [7] = HPLM + 10% dialyzed FBS, 0.569 µM
# [8] = HPLM + 10% dialyzed FBS, 1.71 µM
# [9] = HPLM + 10% dialyzed FBS, 5.12 µM
# [10] = HPLM + 10% dialyzed FBS, 15.4 µM
# [11] = HPLM + 10% dialyzed FBS, 46.1 µM
# [12] = RPMI 5 mM glucose + 10% FBS, 0.000781 µM
# [13] = RPMI 5 mM glucose + 10% FBS, 0.00234 µM
# [14] = RPMI 5 mM glucose + 10% FBS, 0.00702 µM
# [15] = RPMI 5 mM glucose + 10% FBS, 0.0211 µM
# [16] = RPMI 5 mM glucose + 10% FBS, 0.0632 µM
# [17] = RPMI 5 mM glucose + 10% FBS, 0.19 µM
# [18] = RPMI 5 mM glucose + 10% FBS, 0.569 µM
# [19] = RPMI 5 mM glucose + 10% FBS, 1.71 µM
# [20] = RPMI 5 mM glucose + 10% FBS, 5.12 µM
# [21] = RPMI 5 mM glucose + 10% FBS, 15.4 µM
# [22] = RPMI 5 mM glucose + 10% FBS, 46.1 µM
# [23] = RPMI 5 mM glucose + 10% dialyzed FBS, 0.000781 µM
# [24] = RPMI 5 mM glucose + 10% dialyzed FBS, 0.00234 µM
# [25] = RPMI 5 mM glucose + 10% dialyzed FBS, 0.00702 µM
# [26] = RPMI 5 mM glucose + 10% dialyzed FBS, 0.0211 µM
# [27] = RPMI 5 mM glucose + 10% dialyzed FBS, 0.0632 µM
# [28] = RPMI 5 mM glucose + 10% dialyzed FBS, 0.19 µM
# [29] = RPMI 5 mM glucose + 10% dialyzed FBS, 0.569 µM
# [30] = RPMI 5 mM glucose + 10% dialyzed FBS, 1.71 µM
# [31] = RPMI 5 mM glucose + 10% dialyzed FBS, 5.12 µM
# [32] = RPMI 5 mM glucose + 10% dialyzed FBS, 15.4 µM
# [33] = RPMI 5 mM glucose + 10% dialyzed FBS, 46.1 µM
SMILES,cell viability [1],cell viability [2],cell viability [3],cell viability [4],cell viability [5],cell viability [6],cell viability [7],cell viability [8],cell viability [9],cell viability [10],cell viability [11],cell viability [12],cell viability [13],cell viability [14],cell viability [15],cell viability [16],cell viability [17],cell viability [18],cell viability [19],cell viability [20],cell viability [21],cell viability [22],cell viability [23],cell viability [24],cell viability [25],cell viability [26],cell viability [27],cell viability [28],cell viability [29],cell viability [30],cell viability [31],cell viability [32],cell viability [33]
N=C1N[C@H]2[C@H](CS[C@H]2CCCCC(=O)O)N1,86.7%,115%,121%,120%,139%,126%,146%,129%,138%,118%,137%,113%,114%,110%,109%,111%,123%,107%,117%,112%,120%,110%,109%,122%,119%,132%,121%,135%,121%,131%,119%,143%,136%
CN1CCN(CCCN2c3ccccc3Sc3ccc(C(F)(F)F)cc32)CC1,105%,106%,112%,117%,108%,115%,125%,95.4%,32.9%,20.6%,24.2%,100%,104%,108%,101%,96.2%,98.5%,106%,61.5%,18.7%,16.7%,11.3%,99.6%,107%,105%,108%,119%,113%,103%,104%,27.2%,25.6%,21%
NC(=O)Nc1cc(-c2cccc(F)c2)sc1C(=O)N[C@H]1CCCNC1,125%,102%,141%,107%,147%,92.1%,59.2%,42%,24.7%,26.9%,26.2%,,,,,,,,,,,,121%,122%,136%,134%,136%,139%,81.7%,33.2%,24.4%,21.6%,23.4%
Cn1cc(C[C@@H](N)C(=O)O)c2ccccc21,107%,106%,108%,106%,92.4%,111%,100%,101%,101%,90.8%,94.9%,90.4%,90.7%,96.5%,107%,89.6%,95.1%,95.6%,95.5%,92.6%,97.9%,81.2%,90%,90.1%,93.4%,94%,101%,98.9%,93.8%,88.9%,93.3%,87%,76.7%
CC(C)Cc1ccc(C(C)C(=O)O)cc1 (centres undefined),84.6%,106%,96.7%,115%,95.6%,102%,90.6%,102%,82%,91.4%,89.7%,79.4%,93.9%,94.3%,87.3%,97.2%,83.9%,97.9%,86.7%,83.9%,86.1%,89.6%,85.6%,83%,77.8%,85.4%,72.7%,82.2%,76.5%,91.6%,81.9%,80.5%,82.1%
CC(C)OC1=CC=C2C(=C1)O\C=C(/C2=O)C3=CC=CC=C3,116%,119%,130%,143%,151%,120%,122%,105%,108%,123%,120%,,,,,,,,,,,,,,,,,,,,,,
CC(NCCc1ccc(O)cc1)C(O)c1ccc(O)cc1 (centres undefined),124%,123%,121%,111%,124%,120%,127%,110%,118%,97.5%,80%,113%,106%,107%,113%,102%,96.2%,101%,104%,105%,94.8%,95%,93.4%,114%,109%,99.7%,110%,114%,102%,93.8%,91.3%,93.5%,77.3%
COc1cccc2c1CCCC2CCCN1CCN(C2CCCCC2)CC1 (centres undefined),97.9%,105%,99.9%,106%,114%,138%,111%,105%,96.7%,99.7%,57%,102%,107%,109%,100%,99.5%,103%,103%,94%,96.2%,89.7%,66.2%,89.2%,100%,98%,92.7%,93.1%,104%,92.9%,94.8%,109%,87.9%,58%
CCOC(=O)Nc1ccc(NCc2ccc(F)cc2)nc1N,123%,137%,114%,127%,117%,117%,108%,101%,104%,109%,120%,118%,105%,103%,111%,110%,127%,101%,105%,103%,114%,106%,108%,113%,110%,123%,122%,109%,119%,119%,112%,106%,102%
